# Measured values from ChEMBL document CHEMBL1153048, “Novel and potent inhibitors of stearoyl-CoA desaturase-1. Part I: Discovery of 3-(2-hydroxyethoxy)-4-methoxy-N-[5-(3-trifluoromethylbenzyl)thiazol-2-yl]benzamide” (Bioorg Med Chem Lett, 2009).
# What was measured:
# [1] = test system: Mus musculus; assay: Inhibition of SCD1 in db/db mouse liver assessed as conversion of [14C]stearate to [14C]oleate administered through oral gavage; type: functional; conditions: read-out: ID50 (the source's name)
# [2] = Half life in C57BL/6J mouse at 5 mg/kg; type: ADME, organism-based; set-up: dose 5 mg/kg; conditions: in vivo
# [3] = target: T1, Acyl-CoA 6-desaturase (Homo sapiens) (UniProt O95864); assay: Inhibition of delta-6 desaturase in human microsomes assessed as conversion of [14C]linolenic acid to [14C]stearidonic acid at 10 uM; conditions: Microsome
# T1 sequence (whole entry): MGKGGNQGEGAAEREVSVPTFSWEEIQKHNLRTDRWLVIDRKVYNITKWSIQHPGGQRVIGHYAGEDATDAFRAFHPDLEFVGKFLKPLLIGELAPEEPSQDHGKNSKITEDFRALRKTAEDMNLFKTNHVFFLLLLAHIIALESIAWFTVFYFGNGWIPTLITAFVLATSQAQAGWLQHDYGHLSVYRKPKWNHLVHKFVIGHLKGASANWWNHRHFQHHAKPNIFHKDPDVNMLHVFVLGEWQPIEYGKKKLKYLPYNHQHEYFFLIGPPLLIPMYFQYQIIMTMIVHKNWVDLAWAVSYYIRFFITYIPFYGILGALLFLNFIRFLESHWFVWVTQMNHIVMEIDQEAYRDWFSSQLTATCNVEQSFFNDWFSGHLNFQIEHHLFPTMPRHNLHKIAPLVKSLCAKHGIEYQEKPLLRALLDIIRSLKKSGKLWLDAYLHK
# [4] = Volume of distribution in C57BL/6J mouse at 5 mg/kg, iv measured up to 8 hrs; type: ADME, organism-based; set-up: dose 5 mg/kg, route intravenous; conditions: in vivo
# [5] = test system: Mus musculus; assay: AUC in C57BL/6J mouse at 5 mg/kg, iv measured up to 8 hrs; conditions: in vivo
# [6] = AUC (0 to 8 hrs) in C57BL/6J mouse at 5 mg/kg, iv measured up to 8 hrs; type: ADME, organism-based; set-up: time < 8 hr, dose 5 mg/kg, route intravenous; conditions: plasma
# [7] = target: T2, Stearoyl-CoA desaturase (Homo sapiens, UniProt O00767); assay: Inhibition of SCD1 in human microsomes assessed as conversion of [14C]stearate to [14C]oleate after 60 mins; set-up: species or system Microsome
# T2 sequence (O00767 whole entry): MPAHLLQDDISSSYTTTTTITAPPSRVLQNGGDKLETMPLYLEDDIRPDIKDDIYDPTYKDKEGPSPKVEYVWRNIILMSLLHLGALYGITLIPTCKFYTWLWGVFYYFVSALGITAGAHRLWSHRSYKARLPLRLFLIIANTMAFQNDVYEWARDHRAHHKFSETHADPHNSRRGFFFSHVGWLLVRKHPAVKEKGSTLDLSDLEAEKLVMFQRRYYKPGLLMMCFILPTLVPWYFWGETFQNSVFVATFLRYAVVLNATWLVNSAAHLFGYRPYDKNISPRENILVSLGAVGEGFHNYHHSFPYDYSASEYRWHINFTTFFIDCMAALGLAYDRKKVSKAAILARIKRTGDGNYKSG
# [8] = target: T2, Stearoyl-CoA desaturase; assay: Inhibition of human SCD1 expressed in HEK293A cells assessed as conversion of [14C]stearate to [14C]oleate; type: cell-based, HEK293-A
# [9] = target: T3, Acyl-CoA desaturase 1 (Mus musculus, UniProt P13516); assay: Inhibition of SCD1 in mouse microsomes assessed as conversion of [14C]stearate to [14C]oleate after 60 mins; set-up: species or system Microsome
# T3 sequence (P13516 whole entry): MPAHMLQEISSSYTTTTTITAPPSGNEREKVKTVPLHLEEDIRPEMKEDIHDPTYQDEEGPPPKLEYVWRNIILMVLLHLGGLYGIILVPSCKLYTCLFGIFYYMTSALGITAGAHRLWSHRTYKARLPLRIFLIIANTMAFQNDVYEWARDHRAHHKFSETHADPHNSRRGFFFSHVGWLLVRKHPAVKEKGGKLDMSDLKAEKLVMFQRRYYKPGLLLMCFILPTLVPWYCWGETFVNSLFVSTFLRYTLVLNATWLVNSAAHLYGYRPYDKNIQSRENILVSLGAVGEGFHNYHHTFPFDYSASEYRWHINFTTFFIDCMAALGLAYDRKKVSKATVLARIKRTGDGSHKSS
# [10] = Oral bioavailability in C57BL/6J mouse at 20 mg/kg measured up to 8 hrs; type: ADME, organism-based; conditions: in vivo
# [11] = Half life in C57BL/6J mouse at 20 mg/kg, po measured up to 8 hrs; type: ADME, organism-based; set-up: time < 8 hr, dose 20 mg/kg, route oral; conditions: in vivo
# [12] = AUC (0 to 8 hrs) in C57BL/6J mouse at 20 mg/kg, po measured up to 8 hrs; type: ADME, organism-based; set-up: time < 8 hr, dose 20 mg/kg, route oral; conditions: plasma
# [13] = Tmax in C57BL/6J mouse at 20 mg/kg, po measured up to 8 hrs; type: ADME, organism-based; set-up: dose 20 mg/kg, route oral; conditions: in vivo
# [14] = Cmax in C57BL/6J mouse at 20 mg/kg, po measured up to 8 hrs; type: ADME, organism-based; set-up: dose 20 mg/kg, route oral; conditions: in vivo
# [15] = Clearance in C57BL/6J mouse at 5 mg/kg, iv measured up to 8 hrs; type: ADME, organism-based; set-up: dose 5 mg/kg, route intravenous; conditions: in vivo
IC50 [7] [nM],IC50 [8] [nM],IC50 [9] [nM],Compound,further results
–,–,–,COc1ccc(C(=O)Nc2ncc(Cc3cccc(C(F)(F)F)c3)s2)cc1OCCO,ED50 [1]: 2 mg/kg; half-life [2]: 0.9 h; inhibition [3]: 15%; Vd [4]: 0.42 L/kg; AUC [5]: 4700 ng·h/mL; AUC(0-t) at 8 h [6]: 17000 ng·h/mL
> 10000,–,–,COc1ccc(C(=O)Nc2ncc(Cc3cccc(C(F)(F)F)c3)s2)cc1OCC(O)CO (stereo not drawn),–
1220,–,–,COc1ccc(C(=O)Nc2ncc(Cc3cccc(C(F)(F)F)c3)s2)cc1,–
1,13,0.7,COc1ccc(C(=O)Nc2ncc(Cc3cc(Cl)cc(Cl)c3)s2)cc1OCCO,–
9,34,2,COc1ccc(C(=O)Nc2ncc(Cc3ccc(F)c(F)c3)s2)cc1OCCO,–
–,–,> 10000,COc1ccc(C(=O)Nc2ncc(Cc3cccc(C(F)(F)F)c3)s2)cc1OCC(=O)O,–
2160,–,2170,COc1ccc(C(=O)Nc2ncc(Cc3cccc(C(F)(F)F)c3)s2)cc1OCC(C)O (stereo not drawn),–
–,–,> 10000,O=C(Nc1ncc(Cc2cccc(C(F)(F)F)c2)s1)c1ccc2ccccc2c1,–
145,–,76,COc1ccc(C(=O)Nc2ncc(Cc3cccc(C(F)(F)F)c3)s2)cc1OC,inhibition [3]: < 5%
0.6,8,0.2,COc1ccc(C(=O)Nc2ncc(Cc3ccc(F)c(C(F)(F)F)c3)s2)cc1OCCO,ED50 [1]: 5 mg/kg; bioavailability [10]: 3%; AUC at 8 h [11]: 2000 ng·h/mL; Tmax [12]: 1.3 h; half-life [13]: 1.3 h; Cmax [14]: 550 ng/mL
–,–,8220,Cc1ccc(C(=O)Nc2ncc(Cc3cccc(C(F)(F)F)c3)s2)cc1C,–
–,–,1310,COc1ccc(C(=O)Nc2ncc(Cc3cccc(C(C)(C)C)c3)s2)cc1OCCO,–
4,9,1,COc1ccc(C(=O)Nc2ncc(Cc3cccc(Cl)c3)s2)cc1OCCO,ED50 [1]: 1 mg/kg; bioavailability [10]: 12%; AUC at 8 h [11]: 10000 ng·h/mL; Tmax [12]: 2 h; half-life [13]: 5.4 h; Cmax [14]: 1800 ng/mL
1400,–,528,COc1cc(C(=O)Nc2ncc(Cc3cccc(C(F)(F)F)c3)s2)ccc1OCCN1CCOCC1,inhibition [3]: < 5%
11,34,2,COc1ccc(C(=O)Nc2ncc(Cc3cccc(F)c3)s2)cc1OCCO,–
4,59,3,COc1ccc(C(=O)Nc2ncc(Cc3cccc(OC(F)(F)F)c3)s2)cc1OCCO,ED50 [1]: 8 mg/kg; bioavailability [10]: 8%; AUC at 8 h [11]: 4900 ng·h/mL; Tmax [12]: 1.3 h; half-life [13]: 1.5 h; Cmax [14]: 1200 ng/mL
4380,–,–,COc1cc(C(=O)Nc2ncc(Cc3cccc(C(F)(F)F)c3)s2)ccc1OCC(=O)O,inhibition [3]: < 5%
2,17,1,COc1ccc(C(=O)Nc2ncc(Cc3ccc(F)c(Cl)c3)s2)cc1OCCO,ED50 [1]: 2 mg/kg; bioavailability [10]: 38%; AUC at 8 h [11]: 14000 ng·h/mL; Tmax [12]: 1 h; half-life [13]: 2.1 h; Cmax [14]: 3600 ng/mL
1,13,0.8,COc1ccc(C(=O)Nc2ncc(Cc3ccc(Cl)c(Cl)c3)s2)cc1OCCO,–
915,–,193,COc1cccc(C(=O)Nc2ncc(Cc3cccc(C(F)(F)F)c3)s2)c1,inhibition [3]: 53%
> 10000,–,–,COc1ccc(C(=O)Nc2ncc(Cc3cccc(C(F)(F)F)c3)s2)cc1OCCCO,–
2.9,116,0.1,COc1ccc(C(=O)Nc2ncc(Cc3cc(F)cc(F)c3)s2)cc1OCCO,–
9,–,5,COc1ccc2cc(C(=O)Nc3ncc(Cc4cccc(C(F)(F)F)c4)s3)ccc2c1,inhibition [3]: < 5%
0.2,26,–,COc1ccc(C(=O)Nc2ncc(Cc3cc(C(F)(F)F)cc(C(F)(F)F)c3)s2)cc1OCCO,–
–,–,> 10000,COc1ccc(C(=O)Nc2ncc(Cc3cccc(C(F)(F)F)c3)s2)cc1OCC(C)(C)O,–
10,–,3,COc1cc(C(=O)Nc2ncc(Cc3cccc(C(F)(F)F)c3)s2)ccc1OCCO,bioavailability [10]: 0.2%; half-life [11]: 1.3 h; half-life [2]: 1.4 h; inhibition [3]: 16%; AUC(0-t) at 8 h [12]: 150 ng·h/mL; Vd [4]: 0.42 L/kg; AUC(0-t) at 8 h [6]: 24000 ng·h/mL; Tmax [13]: 0.5 h; clearance [15]: 3.4 mL/min/kg; Cmax [14]: 70 ng/mL
125,429,9,COc1ccc(C(=O)Nc2ncc(Cc3cc(Cl)ccc3Cl)s2)cc1OCCO,–
82,639,22,COc1ccc(C(=O)Nc2ncc(Cc3ccc(C)c(F)c3)s2)cc1OCCO,–
3,–,2,COc1ccc(/C=C/C(=O)Nc2ncc(Cc3cccc(C(F)(F)F)c3)s2)cc1,half-life [2]: 0.4 h; inhibition [3]: 21%; Vd [4]: 0.3 L/kg; AUC(0-t) at 8 h [6]: 2700 ng·h/mL; clearance [15]: 32 mL/min/kg
